Measurements taken from the NIST ThermoML archive (doi:10.1021/je700032n).
“And” between values parts separate entries of the source, which are not always exact repeats. Identical values can stand only once. ± gives the expanded uncertainty stated by the source.

Details: Liquid; for viscosity: Falling or rolling sphere viscometry; for mass density: 101.33 kPa, Vibrating tube method

CCCC[n+]1ccn(C)c1.O=S(=O)([N-]S(=O)(=O)C(F)(F)F)C(F)(F)F
Details	viscosity
273.15 K, 100 kPa	191.3 ± 10 mPa·s and 191.6 ± 10 mPa·s
278.15 K, 100 kPa	140.4 ± 6.6 mPa·s
283.15 K, 100 kPa	106.1 ± 4.4 mPa·s
283.15 K, 24300 kPa	146.8 ± 6.9 mPa·s
283.15 K, 49900 kPa	205.8 ± 11 mPa·s
283.15 K, 74100 kPa	280.3 ± 18 mPa·s
288.15 K, 100 kPa	81.6 ± 3 mPa·s
293.15 K, 100 kPa	63.8 ± 2.2 mPa·s and 63.9 ± 2.2 mPa·s
298.15 K, 100 kPa	50.9 ± 1.7 mPa·s and 51 ± 1.7 mPa·s and 51.1 ± 1.7 mPa·s
298.15 K, 24300 kPa	68.1 ± 2.3 mPa·s
298.15 K, 49300 kPa	90.9 ± 3.4 mPa·s
298.15 K, 76900 kPa	124 ± 5.4 mPa·s
298.15 K, 101500 kPa	161.5 ± 7.8 mPa·s
298.15 K, 126400 kPa	210.3 ± 12 mPa·s
298.15 K, 150200 kPa	269.4 ± 17 mPa·s
303.15 K, 100 kPa	41.5 ± 1.4 mPa·s
313.15 K, 100 kPa	28.5 ± 1 mPa·s
323.15 K, 100 kPa	20.5 ± 0.7 mPa·s and 20.6 ± 0.7 mPa·s and 20.7 ± 0.7 mPa·s
323.15 K, 26400 kPa	26.9 ± 0.9 mPa·s
323.15 K, 35600 kPa	29.2 ± 1 mPa·s
323.15 K, 52000 kPa	34.6 ± 1.2 mPa·s
323.15 K, 53900 kPa	34.8 ± 1.2 mPa·s
323.15 K, 69800 kPa	40.2 ± 1.4 mPa·s
323.15 K, 75000 kPa	41.6 ± 1.5 mPa·s
323.15 K, 101600 kPa	53.9 ± 2.3 mPa·s
323.15 K, 103600 kPa	54.4 ± 2.3 mPa·s
323.15 K, 123600 kPa	64.3 ± 2.2 mPa·s
323.15 K, 152800 kPa	83.6 ± 3.1 mPa·s
323.15 K, 200300 kPa	123.2 ± 5.3 mPa·s
323.15 K, 226000 kPa	151.2 ± 7.1 mPa·s
323.15 K, 249600 kPa	183.2 ± 9.4 mPa·s
333.15 K, 100 kPa	15.4 ± 0.5 mPa·s and 15.5 ± 0.5 mPa·s
343.15 K, 100 kPa	12 ± 0.4 mPa·s
348.15 K, 100 kPa	10.6 ± 0.4 mPa·s and 10.7 ± 0.4 mPa·s
348.15 K, 800 kPa	10.7 ± 0.4 mPa·s
348.15 K, 25700 kPa	13.4 ± 0.5 mPa·s
348.15 K, 50700 kPa	16.4 ± 0.6 mPa·s
348.15 K, 75600 kPa	19.9 ± 0.7 mPa·s
348.15 K, 100900 kPa	24.2 ± 0.8 mPa·s
348.15 K, 125500 kPa	29 ± 1 mPa·s
348.15 K, 150600 kPa	34.6 ± 1.2 mPa·s
348.15 K, 175400 kPa	40.9 ± 1.4 mPa·s
348.15 K, 175600 kPa	41 ± 1.4 mPa·s
348.15 K, 200600 kPa	48.6 ± 1.7 mPa·s
348.15 K, 225400 kPa	57.4 ± 2 mPa·s
348.15 K, 249700 kPa	67.3 ± 2.4 mPa·s
348.15 K, 274500 kPa	79 ± 2.9 mPa·s
348.15 K, 298900 kPa	92.6 ± 3.6 mPa·s
353.15 K, 100 kPa	9.53 ± 0.32 mPa·s

Details	mass density
273.15 K	1460.67 ± 12 kg/m3
278.15 K	1455.84 ± 12 kg/m3
283.15 K	1451.04 ± 12 kg/m3
288.15 K	1446.23 ± 11 kg/m3
293.15 K	1441.43 ± 11 kg/m3 and 1441.42 ± 11 kg/m3
298.15 K	1436.64 ± 11 kg/m3 and 1436.6 ± 11 kg/m3
303.15 K	1431.86 ± 11 kg/m3
313.15 K	1422.34 ± 11 kg/m3
323.15 K	1412.87 ± 11 kg/m3 and 1412.85 ± 11 kg/m3
333.15 K	1403.48 ± 11 kg/m3
343.15 K	1394.15 ± 11 kg/m3
353.15 K	1384.88 ± 10 kg/m3
363.15 K	1375.67 ± 10 kg/m3

CCCCCCn1cc[n+](C)c1.F[P-](F)(F)(F)(F)F [1-hexyl-3-methylimidazolium hexafluorophosphate]
Details	viscosity
273.15 K, 100 kPa	3924 ± 590 mPa·s
278.15 K, 100 kPa	2428 ± 330 mPa·s
283.15 K, 100 kPa	1566 ± 190 mPa·s and 1565 ± 190 mPa·s
288.15 K, 100 kPa	1036 ± 110 mPa·s and 1035 ± 110 mPa·s
293.15 K, 100 kPa	705.1 ± 66 mPa·s
298.15 K, 100 kPa	496.4 ± 41 mPa·s and 496.5 ± 41 mPa·s
298.15 K, 22000 kPa	685.3 ± 63 mPa·s
298.15 K, 42100 kPa	917.7 ± 93 mPa·s
298.15 K, 60300 kPa	1190 ± 130 mPa·s
298.15 K, 80300 kPa	1572 ± 190 mPa·s
298.15 K, 100100 kPa	2064 ± 260 mPa·s
303.15 K, 100 kPa	356.9 ± 26 mPa·s and 356.8 ± 26 mPa·s
313.15 K, 100 kPa	197 ± 11 mPa·s
313.15 K, 400 kPa	197.3 ± 11 mPa·s
313.15 K, 25700 kPa	276.7 ± 18 mPa·s
313.15 K, 50800 kPa	381.8 ± 28 mPa·s
313.15 K, 76000 kPa	521.9 ± 44 mPa·s
313.15 K, 101400 kPa	708.3 ± 67 mPa·s
313.15 K, 125200 kPa	939.3 ± 96 mPa·s
313.15 K, 150000 kPa	1254 ± 140 mPa·s
323.15 K, 100 kPa	119.2 ± 5.1 mPa·s and 117 ± 5 mPa·s
323.15 K, 7600 kPa	118.3 ± 5 mPa·s
323.15 K, 25800 kPa	161.7 ± 8.1 mPa·s
323.15 K, 50600 kPa	217.1 ± 12 mPa·s
323.15 K, 76000 kPa	290.7 ± 19 mPa·s
323.15 K, 100900 kPa	384 ± 29 mPa·s
323.15 K, 125800 kPa	503.9 ± 42 mPa·s
323.15 K, 150100 kPa	655 ± 59 mPa·s
323.15 K, 174800 kPa	850.1 ± 84 mPa·s
333.15 K, 100 kPa	75.2 ± 2.7 mPa·s and 74.4 ± 2.6 mPa·s
333.15 K, 40500 kPa	118.5 ± 5 mPa·s
333.15 K, 80800 kPa	182.8 ± 9.5 mPa·s
333.15 K, 120800 kPa	275.7 ± 18 mPa·s
333.15 K, 160600 kPa	408.7 ± 31 mPa·s
333.15 K, 200100 kPa	598.9 ± 52 mPa·s
343.15 K, 100 kPa	49.7 ± 1.7 mPa·s
348.15 K, 100 kPa	41.3 ± 1.4 mPa·s
348.15 K, 800 kPa	41.9 ± 1.4 mPa·s
348.15 K, 40700 kPa	63.7 ± 2.2 mPa·s
348.15 K, 80800 kPa	94.2 ± 3.7 mPa·s
348.15 K, 120700 kPa	136.4 ± 6.3 mPa·s
348.15 K, 160600 kPa	194.8 ± 11 mPa·s
348.15 K, 200200 kPa	274.5 ± 18 mPa·s
348.15 K, 238500 kPa	378 ± 28 mPa·s
353.15 K, 100 kPa	34.8 ± 1.2 mPa·s

Details	mass density
273.15 K	1313.39 ± 9.4 kg/m3
278.15 K	1309.33 ± 9.3 kg/m3
283.15 K	1305.29 ± 9.3 kg/m3
288.15 K	1301.26 ± 9.2 kg/m3
293.15 K	1297.24 ± 9.2 kg/m3
298.15 K	1293.22 ± 9.1 kg/m3
303.15 K	1289.21 ± 9.1 kg/m3
313.15 K	1281.17 ± 8.9 kg/m3
323.15 K	1273.44 ± 8.8 kg/m3
333.15 K	1265.69 ± 8.7 kg/m3 and 1265.68 ± 8.7 kg/m3
343.15 K	1257.96 ± 8.6 kg/m3
353.15 K	1250.28 ± 8.5 kg/m3
363.15 K	1242.64 ± 8.4 kg/m3
